Consider three compounds from the kinase profiling compilation of Christmann-Franck et al. (2016).

Sequence of DYRK1B (human) (Q9Y463 whole entry, looked up): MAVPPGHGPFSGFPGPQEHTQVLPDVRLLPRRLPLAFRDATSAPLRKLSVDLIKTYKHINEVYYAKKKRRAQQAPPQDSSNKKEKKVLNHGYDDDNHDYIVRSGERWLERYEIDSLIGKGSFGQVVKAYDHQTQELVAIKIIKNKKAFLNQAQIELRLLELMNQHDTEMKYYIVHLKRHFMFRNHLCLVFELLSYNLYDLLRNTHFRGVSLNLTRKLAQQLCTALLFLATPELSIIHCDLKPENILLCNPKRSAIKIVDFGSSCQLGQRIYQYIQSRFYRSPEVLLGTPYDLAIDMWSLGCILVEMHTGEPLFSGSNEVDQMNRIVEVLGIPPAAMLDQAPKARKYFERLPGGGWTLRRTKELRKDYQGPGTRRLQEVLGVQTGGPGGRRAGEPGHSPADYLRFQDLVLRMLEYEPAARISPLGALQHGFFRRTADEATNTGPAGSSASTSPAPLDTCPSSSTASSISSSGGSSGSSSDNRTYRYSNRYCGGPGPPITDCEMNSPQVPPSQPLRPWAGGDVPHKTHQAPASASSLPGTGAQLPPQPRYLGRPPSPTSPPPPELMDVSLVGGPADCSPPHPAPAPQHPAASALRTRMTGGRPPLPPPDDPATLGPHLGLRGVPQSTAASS

The first test deals with CAMKK1 (human) (UniProt Q8N5S9). As to the kind of experiment: radiometric filter-binding kinase assay, Kinase HotSpot. As to conditions: compound 0.5 µM; ATP 10 µM.
`O=C1NC(=O)C(c2cn(CCCO)c3ncccc23)=C1c1cnccn1`: the residual activity is 107%.
`COc1cc2ncnc(N3CCN(C(=O)Nc4ccc(Oc5ccccc5)cc4)CC3)c2cc1OC`: the residual activity was found to be 92.9%.

In a further test the target is AKT1 (human) (UniProt P31749). Described as above. As to conditions: compound 0.5 µM; ATP 10 µM.
Sequence of AKT1 (human) (P31749 whole entry, looked up): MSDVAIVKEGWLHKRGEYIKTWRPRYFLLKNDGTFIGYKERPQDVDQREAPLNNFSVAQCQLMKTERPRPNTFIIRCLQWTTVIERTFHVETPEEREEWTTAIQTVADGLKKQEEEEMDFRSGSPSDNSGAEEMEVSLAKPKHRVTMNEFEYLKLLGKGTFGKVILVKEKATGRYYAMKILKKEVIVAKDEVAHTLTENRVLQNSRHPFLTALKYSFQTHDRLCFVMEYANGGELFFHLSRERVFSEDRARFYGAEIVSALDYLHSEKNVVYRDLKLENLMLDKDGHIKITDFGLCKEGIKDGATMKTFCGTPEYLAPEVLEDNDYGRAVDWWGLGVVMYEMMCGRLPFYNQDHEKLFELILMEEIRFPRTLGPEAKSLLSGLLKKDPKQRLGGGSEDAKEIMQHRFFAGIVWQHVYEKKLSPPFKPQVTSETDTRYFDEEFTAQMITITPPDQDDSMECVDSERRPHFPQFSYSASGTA
Regarding `Cc1nc2cc3nc(-c4cccs4)cnc3cc2n1C`, the residual activity was determined as 114%.
Same read-out and setting: the same measure for `O=C1NC(=O)C(c2cn(CCCO)c3ncccc23)=C1c1cnccn1`: 98.6%.
On the same count and under the same terms, the same measure for `COc1cc2ncnc(N3CCN(C(=O)Nc4ccc(Oc5ccccc5)cc4)CC3)c2cc1OC`: 93.7%.

Another test addresses DYRK1B (human) (UniProt Q9Y463). Described as above. As to conditions: compound 0.5 µM; ATP 10 µM.
In the case of `Cc1nc2cc3nc(-c4cccs4)cnc3cc2n1C`, the residual activity was found to be 102%.
`O=C1NC(=O)C(c2cn(CCCO)c3ncccc23)=C1c1cnccn1`: the residual activity was found to be 93.2%.
Same read-out and setting: the result for `COc1cc2ncnc(N3CCN(C(=O)Nc4ccc(Oc5ccccc5)cc4)CC3)c2cc1OC` reads 93.5%.

A further test deals with RPS6KA6 KD1 KD2 (human) (UniProt Q9UK32). The description is as above. As to conditions: compound 0.5 µM; ATP 10 µM.
`Cc1nc2cc3nc(-c4cccs4)cnc3cc2n1C`: the residual activity is 88.5%.
As to `O=C1NC(=O)C(c2cn(CCCO)c3ncccc23)=C1c1cnccn1`, the residual activity is 73%.
The same measure, in the same setting: the result for `COc1cc2ncnc(N3CCN(C(=O)Nc4ccc(Oc5ccccc5)cc4)CC3)c2cc1OC` reads 92%.

The next test deals with CLK1 (human) (UniProt P49759). The test is described as above. As to conditions: compound 0.5 µM; ATP 10 µM.
`Cc1nc2cc3nc(-c4cccs4)cnc3cc2n1C`: the residual activity is 111%.
Still for that read-out and setting: the result for `O=C1NC(=O)C(c2cn(CCCO)c3ncccc23)=C1c1cnccn1` reads 88.5%.
As to `COc1cc2ncnc(N3CCN(C(=O)Nc4ccc(Oc5ccccc5)cc4)CC3)c2cc1OC`, the residual activity is 89.4%.

In the next test the target is MAPK1 (human) (UniProt P28482). The description is as above. As to conditions: compound 0.5 µM; ATP 10 µM.
As to `Cc1nc2cc3nc(-c4cccs4)cnc3cc2n1C`, the residual activity was 110%.
On the same count and under the same terms, the same measure for `O=C1NC(=O)C(c2cn(CCCO)c3ncccc23)=C1c1cnccn1`: 81.9%; for `COc1cc2ncnc(N3CCN(C(=O)Nc4ccc(Oc5ccccc5)cc4)CC3)c2cc1OC`: 83.9%.

In the next test the target is DDR2 (human) (UniProt Q16832). The description is as above. As to conditions: compound 0.5 µM; ATP 10 µM.
As for `Cc1nc2cc3nc(-c4cccs4)cnc3cc2n1C`, the residual activity was determined as 108%.
As to `O=C1NC(=O)C(c2cn(CCCO)c3ncccc23)=C1c1cnccn1`, the residual activity came to 94.6%.
On the same count and under the same terms, the result for `COc1cc2ncnc(N3CCN(C(=O)Nc4ccc(Oc5ccccc5)cc4)CC3)c2cc1OC` reads 95.1%.

For a further test, the target named is IGF1R (human) (UniProt P08069). The description is as above. As to conditions: compound 0.5 µM; ATP 10 µM.
Sequence of IGF1R (human) (P08069 whole entry, looked up): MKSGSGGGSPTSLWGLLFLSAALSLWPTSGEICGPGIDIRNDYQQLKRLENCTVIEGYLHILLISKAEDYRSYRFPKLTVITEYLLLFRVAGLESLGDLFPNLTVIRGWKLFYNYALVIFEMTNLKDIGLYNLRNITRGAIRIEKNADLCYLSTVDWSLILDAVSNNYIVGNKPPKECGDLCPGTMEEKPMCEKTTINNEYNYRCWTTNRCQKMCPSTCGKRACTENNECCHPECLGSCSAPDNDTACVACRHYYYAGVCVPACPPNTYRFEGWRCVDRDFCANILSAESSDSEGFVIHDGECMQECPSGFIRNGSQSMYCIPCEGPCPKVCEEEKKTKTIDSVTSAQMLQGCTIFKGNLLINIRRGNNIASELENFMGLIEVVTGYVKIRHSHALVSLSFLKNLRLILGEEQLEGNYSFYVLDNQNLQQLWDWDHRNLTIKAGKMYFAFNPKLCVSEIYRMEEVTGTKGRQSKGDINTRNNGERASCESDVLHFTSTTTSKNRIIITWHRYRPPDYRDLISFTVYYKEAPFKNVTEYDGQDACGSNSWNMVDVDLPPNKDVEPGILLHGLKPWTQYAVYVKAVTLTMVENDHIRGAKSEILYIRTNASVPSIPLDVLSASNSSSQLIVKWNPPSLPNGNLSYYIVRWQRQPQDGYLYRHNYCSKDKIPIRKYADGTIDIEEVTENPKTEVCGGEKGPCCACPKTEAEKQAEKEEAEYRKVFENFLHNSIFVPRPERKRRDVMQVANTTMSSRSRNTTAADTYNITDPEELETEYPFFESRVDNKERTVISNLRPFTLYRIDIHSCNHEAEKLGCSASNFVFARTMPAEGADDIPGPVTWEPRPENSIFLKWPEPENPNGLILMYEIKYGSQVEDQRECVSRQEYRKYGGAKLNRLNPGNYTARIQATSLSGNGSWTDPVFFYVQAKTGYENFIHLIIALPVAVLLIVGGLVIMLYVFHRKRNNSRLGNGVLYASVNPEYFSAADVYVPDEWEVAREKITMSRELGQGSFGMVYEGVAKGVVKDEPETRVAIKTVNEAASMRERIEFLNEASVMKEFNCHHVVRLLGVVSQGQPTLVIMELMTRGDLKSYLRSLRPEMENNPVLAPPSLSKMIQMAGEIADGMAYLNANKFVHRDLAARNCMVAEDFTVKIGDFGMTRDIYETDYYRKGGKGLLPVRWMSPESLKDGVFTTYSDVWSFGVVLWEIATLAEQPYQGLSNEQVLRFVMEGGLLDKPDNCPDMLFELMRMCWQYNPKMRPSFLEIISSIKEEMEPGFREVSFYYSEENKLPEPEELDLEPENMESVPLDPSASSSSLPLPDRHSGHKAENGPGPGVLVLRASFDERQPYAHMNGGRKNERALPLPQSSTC
As to `Cc1nc2cc3nc(-c4cccs4)cnc3cc2n1C`, the residual activity amounted to 96.4%.
For `O=C1NC(=O)C(c2cn(CCCO)c3ncccc23)=C1c1cnccn1`, the residual activity turned out to be 98.4%.
On the same count and under the same terms, the same measure for `COc1cc2ncnc(N3CCN(C(=O)Nc4ccc(Oc5ccccc5)cc4)CC3)c2cc1OC`: 103%.

Another test deals with PIM2 (human) (UniProt Q9P1W9). Described as above. As to conditions: compound 0.5 µM; ATP 10 µM.
Sequence of PIM2 (human) (Q9P1W9 whole entry, looked up): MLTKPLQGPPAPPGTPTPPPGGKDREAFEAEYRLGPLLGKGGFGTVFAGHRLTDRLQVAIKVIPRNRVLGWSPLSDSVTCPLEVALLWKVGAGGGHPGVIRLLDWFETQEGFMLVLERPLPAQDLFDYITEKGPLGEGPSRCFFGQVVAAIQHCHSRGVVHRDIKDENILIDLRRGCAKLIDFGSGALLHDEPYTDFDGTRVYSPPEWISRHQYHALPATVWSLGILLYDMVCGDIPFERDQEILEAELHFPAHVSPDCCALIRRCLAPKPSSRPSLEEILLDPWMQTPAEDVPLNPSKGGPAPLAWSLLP
In the case of `Cc1nc2cc3nc(-c4cccs4)cnc3cc2n1C`, the residual activity is 114%.
Still for that read-out and setting: the same measure for `O=C1NC(=O)C(c2cn(CCCO)c3ncccc23)=C1c1cnccn1`: 92.7%.
Turning to `COc1cc2ncnc(N3CCN(C(=O)Nc4ccc(Oc5ccccc5)cc4)CC3)c2cc1OC`, the residual activity was determined as 101%.

For a further test, the target named is PRKCD (human) (UniProt Q05655). The description is as above. As to conditions: compound 0.5 µM; ATP 10 µM.
Sequence of PRKCD (human) (Q05655 whole entry, looked up): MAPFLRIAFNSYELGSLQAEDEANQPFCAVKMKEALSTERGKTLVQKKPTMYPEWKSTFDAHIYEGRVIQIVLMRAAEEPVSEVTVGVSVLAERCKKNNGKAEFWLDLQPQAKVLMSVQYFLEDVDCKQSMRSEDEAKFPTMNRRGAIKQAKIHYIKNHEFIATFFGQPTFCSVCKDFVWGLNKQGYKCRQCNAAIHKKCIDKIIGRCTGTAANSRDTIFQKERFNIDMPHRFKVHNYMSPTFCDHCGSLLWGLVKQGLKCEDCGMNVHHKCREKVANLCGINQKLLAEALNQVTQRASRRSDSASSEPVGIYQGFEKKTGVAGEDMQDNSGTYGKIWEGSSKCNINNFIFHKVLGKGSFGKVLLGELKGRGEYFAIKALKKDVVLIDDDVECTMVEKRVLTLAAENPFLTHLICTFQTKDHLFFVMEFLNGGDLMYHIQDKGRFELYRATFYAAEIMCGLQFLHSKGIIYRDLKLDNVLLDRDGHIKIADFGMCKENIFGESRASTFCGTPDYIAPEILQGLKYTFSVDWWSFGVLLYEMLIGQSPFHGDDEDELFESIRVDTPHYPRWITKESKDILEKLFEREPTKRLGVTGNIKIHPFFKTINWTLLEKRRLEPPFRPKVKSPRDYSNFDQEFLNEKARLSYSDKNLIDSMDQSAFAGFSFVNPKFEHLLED
For the compound `Cc1nc2cc3nc(-c4cccs4)cnc3cc2n1C`, the residual activity came to 78.6%.
As to `O=C1NC(=O)C(c2cn(CCCO)c3ncccc23)=C1c1cnccn1`, the residual activity worked out at 97%.
Same read-out and setting: the same measure for `COc1cc2ncnc(N3CCN(C(=O)Nc4ccc(Oc5ccccc5)cc4)CC3)c2cc1OC`: 84.3%.

A further test deals with MAPK13 (human) (UniProt O15264). Described as above. As to conditions: compound 0.5 µM; ATP 10 µM.
For `Cc1nc2cc3nc(-c4cccs4)cnc3cc2n1C`, the residual activity is 99.7%.
The same measure, in the same setting: the same measure for `O=C1NC(=O)C(c2cn(CCCO)c3ncccc23)=C1c1cnccn1`: 96.5%; for `COc1cc2ncnc(N3CCN(C(=O)Nc4ccc(Oc5ccccc5)cc4)CC3)c2cc1OC`: 104%.

In a further test the target is CDK3 CCNE1 (human) (UniProt Q00526+P24864). The description is as above. As to conditions: compound 0.5 µM; ATP 10 µM.
Take `Cc1nc2cc3nc(-c4cccs4)cnc3cc2n1C`: the residual activity was found to be 93.6%.
Same read-out and setting: the same measure for `O=C1NC(=O)C(c2cn(CCCO)c3ncccc23)=C1c1cnccn1`: 89.4%; for `COc1cc2ncnc(N3CCN(C(=O)Nc4ccc(Oc5ccccc5)cc4)CC3)c2cc1OC`: 82%.

A further test concerns the target SGK2 (human) (UniProt Q9HBY8). The description is as above. As to conditions: compound 0.5 µM; ATP 10 µM.
Turning to `Cc1nc2cc3nc(-c4cccs4)cnc3cc2n1C`, the residual activity is 115%.
On the same count and under the same terms, the same measure for `O=C1NC(=O)C(c2cn(CCCO)c3ncccc23)=C1c1cnccn1`: 96.9%; for `COc1cc2ncnc(N3CCN(C(=O)Nc4ccc(Oc5ccccc5)cc4)CC3)c2cc1OC`: 96.7%.

In the next test the target is TYK2 JH1 catalytic (human) (UniProt P29597). The description is as above. As to conditions: compound 0.5 µM; ATP 10 µM.
For `Cc1nc2cc3nc(-c4cccs4)cnc3cc2n1C`, the residual activity amounted to 102%.
Regarding `O=C1NC(=O)C(c2cn(CCCO)c3ncccc23)=C1c1cnccn1`, the residual activity was found to be 96.9%.
On the same count and under the same terms, the same measure for `COc1cc2ncnc(N3CCN(C(=O)Nc4ccc(Oc5ccccc5)cc4)CC3)c2cc1OC`: 83.1%.

The target in a further test is ACVRL1 (human) (UniProt P37023). Described as above. As to conditions: compound 0.5 µM; ATP 10 µM.
In the case of `Cc1nc2cc3nc(-c4cccs4)cnc3cc2n1C`, the residual activity is 109%.
Regarding `O=C1NC(=O)C(c2cn(CCCO)c3ncccc23)=C1c1cnccn1`, the residual activity was 105%.
`COc1cc2ncnc(N3CCN(C(=O)Nc4ccc(Oc5ccccc5)cc4)CC3)c2cc1OC`: the residual activity stood at 93%.

The next test concerns the target TSSK1B (human) (UniProt Q9BXA7). Described as above. As to conditions: compound 0.5 µM; ATP 10 µM.
For the compound `Cc1nc2cc3nc(-c4cccs4)cnc3cc2n1C`, the residual activity worked out at 91.3%.
Same read-out and setting: the same measure for `O=C1NC(=O)C(c2cn(CCCO)c3ncccc23)=C1c1cnccn1`: 94.9%; for `COc1cc2ncnc(N3CCN(C(=O)Nc4ccc(Oc5ccccc5)cc4)CC3)c2cc1OC`: 65.2%.

Another test deals with NTRK2 (human) (UniProt Q16620). The description is as above. As to conditions: compound 0.5 µM; ATP 10 µM.
As for `Cc1nc2cc3nc(-c4cccs4)cnc3cc2n1C`, the residual activity stood at 64.7%.
On the same count and under the same terms, the result for `O=C1NC(=O)C(c2cn(CCCO)c3ncccc23)=C1c1cnccn1` reads 99.7%; that for `COc1cc2ncnc(N3CCN(C(=O)Nc4ccc(Oc5ccccc5)cc4)CC3)c2cc1OC`, 121%.

For another test, the target named is MAP3K5 (human) (UniProt Q99683). Described as above. As to conditions: compound 0.5 µM; ATP 10 µM.
Sequence of MAP3K5 (human) (Q99683 whole entry, looked up): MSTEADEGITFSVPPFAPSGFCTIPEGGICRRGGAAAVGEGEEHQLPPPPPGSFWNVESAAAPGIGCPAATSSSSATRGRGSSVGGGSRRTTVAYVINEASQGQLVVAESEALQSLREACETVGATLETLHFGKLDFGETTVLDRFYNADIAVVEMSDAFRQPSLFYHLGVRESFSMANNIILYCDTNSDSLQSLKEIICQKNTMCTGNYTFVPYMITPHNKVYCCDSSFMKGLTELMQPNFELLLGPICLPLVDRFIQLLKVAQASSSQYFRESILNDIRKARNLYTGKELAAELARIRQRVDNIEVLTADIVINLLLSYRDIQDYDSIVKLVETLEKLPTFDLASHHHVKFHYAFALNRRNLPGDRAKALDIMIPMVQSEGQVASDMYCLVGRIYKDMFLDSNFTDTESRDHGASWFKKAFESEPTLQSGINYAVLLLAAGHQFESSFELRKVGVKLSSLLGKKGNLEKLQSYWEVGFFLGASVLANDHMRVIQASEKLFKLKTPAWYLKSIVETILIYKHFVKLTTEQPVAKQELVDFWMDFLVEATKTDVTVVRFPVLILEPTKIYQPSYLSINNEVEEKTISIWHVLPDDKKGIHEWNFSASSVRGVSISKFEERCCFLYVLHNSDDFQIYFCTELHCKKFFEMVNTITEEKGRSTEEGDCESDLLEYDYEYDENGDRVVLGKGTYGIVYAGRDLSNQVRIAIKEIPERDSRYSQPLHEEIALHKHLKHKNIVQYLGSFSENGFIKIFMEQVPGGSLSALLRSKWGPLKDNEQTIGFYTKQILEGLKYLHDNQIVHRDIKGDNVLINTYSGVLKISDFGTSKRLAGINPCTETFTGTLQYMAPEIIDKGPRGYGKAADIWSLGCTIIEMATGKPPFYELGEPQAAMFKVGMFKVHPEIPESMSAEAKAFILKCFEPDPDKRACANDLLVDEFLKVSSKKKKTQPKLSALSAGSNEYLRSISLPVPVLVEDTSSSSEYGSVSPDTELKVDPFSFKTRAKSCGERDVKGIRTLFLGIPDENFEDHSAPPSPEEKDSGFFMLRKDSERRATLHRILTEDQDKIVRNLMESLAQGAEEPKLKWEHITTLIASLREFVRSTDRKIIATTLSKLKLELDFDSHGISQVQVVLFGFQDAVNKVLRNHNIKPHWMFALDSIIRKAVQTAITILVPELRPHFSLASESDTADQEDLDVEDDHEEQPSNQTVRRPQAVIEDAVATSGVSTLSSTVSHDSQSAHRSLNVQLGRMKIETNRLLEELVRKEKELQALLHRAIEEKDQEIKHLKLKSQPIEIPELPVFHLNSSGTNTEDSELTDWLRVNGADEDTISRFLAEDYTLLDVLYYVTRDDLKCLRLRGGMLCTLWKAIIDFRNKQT
Consider `Cc1nc2cc3nc(-c4cccs4)cnc3cc2n1C`, for which the residual activity was 98.9%.
On the same count and under the same terms, the same measure for `O=C1NC(=O)C(c2cn(CCCO)c3ncccc23)=C1c1cnccn1`: 88.9%; for `COc1cc2ncnc(N3CCN(C(=O)Nc4ccc(Oc5ccccc5)cc4)CC3)c2cc1OC`: 102%.

Another test addresses MAP3K9 (human) (UniProt P80192). The test is described as above. As to conditions: compound 0.5 µM; ATP 10 µM.
For the compound `Cc1nc2cc3nc(-c4cccs4)cnc3cc2n1C`, the residual activity was 90.3%.
On the same count and under the same terms, the same measure for `O=C1NC(=O)C(c2cn(CCCO)c3ncccc23)=C1c1cnccn1`: 85.5%; for `COc1cc2ncnc(N3CCN(C(=O)Nc4ccc(Oc5ccccc5)cc4)CC3)c2cc1OC`: 100%.

In a further test the target is PRKG2 (human) (UniProt Q13237). Described as above. As to conditions: compound 0.5 µM; ATP 10 µM.
Consider `Cc1nc2cc3nc(-c4cccs4)cnc3cc2n1C`, for which the residual activity amounted to 87.7%.
Same read-out and setting: the same measure for `O=C1NC(=O)C(c2cn(CCCO)c3ncccc23)=C1c1cnccn1`: 118%.
On the same count and under the same terms, the result for `COc1cc2ncnc(N3CCN(C(=O)Nc4ccc(Oc5ccccc5)cc4)CC3)c2cc1OC` reads 97.5%.

The target of a further test is CDK1 CCNB1 (human) (UniProt P06493+P14635). The test is described as above. As to conditions: compound 0.5 µM; ATP 10 µM.
Consider `Cc1nc2cc3nc(-c4cccs4)cnc3cc2n1C`, for which the residual activity amounted to 96.7%.
The same measure, in the same setting: the same measure for `O=C1NC(=O)C(c2cn(CCCO)c3ncccc23)=C1c1cnccn1`: 81.1%; for `COc1cc2ncnc(N3CCN(C(=O)Nc4ccc(Oc5ccccc5)cc4)CC3)c2cc1OC`: 105%.
